# Source: patent US5585358A, “Derivatives of valproic acid amides and 2-valproenoic acid amides, method of making and use thereof as anticonvulsant agents” (Yissum Research Development Corporation of the Hebrew …, priority 1993, dated 1996)
# Where two headings read alike, the source gives them in different places.
# Tests used:
# [1] = maximal electroshock (MES) test, rat p.o.; type: in vivo; conditions: for ED100: Rattus norvegicus, rats, read-out: minimum dose giving full protection against seizures in the MES test
# Excerpt: (§1) The first model, the subcutaneous pentylenetetrazol (s.c. Met) seizure threshold test, is a standard screening procedure to show efficacy for agents against absence seizures. The second model, the maximal electroshock (MES) test, is used to show efficacy for antiepileptic agents against generalized seizures. In these studies, convulsions were inhibited or prevented in mice after intraperitoneal (i.p.) administration and/or in rats after oral (p.o.) administration of the compounds.
# (§2) N-(2-Propylpentanoyl)glycinamide (hereinafter compound 1) was further tested in two additional models. The third model, electrical kindling of rats, has been known to show efficacy of antiepileptic agents against complex partial seizures that evolve into generalized motor seizures. In these tests, rats were electrically stimulated via corneal electrodes twice daily for approximately 5 days and then once daily for an additional 10 days. Once the seizure criteria, as described by R. J. Racine, et al., Electroenceph. […] In addition, compound 1 was also tested in the subcutaneous bicuculline model (s.c. Bic).
# and rats by subcutaneous administration of pentylenetetrazol (s.c. Met
# test) or by electrical stimulation (MES test). N.E. = not effective.
# [2] = maximal electroshock (MES) test, mice i.p.; type: in vivo; conditions: for activity in MES model: doses up to 300 mg/kg
# Excerpt: Convulsions were induced in mice
# [3] = subcutaneous pentylenetetrazol (s.c. Met) seizure threshold test, mice i.p.; type: in vivo; conditions: for activity in s.c. Met model: doses up to 300 mg/kg
# Excerpt: Convulsions were induced in mice
# [4] = electrical kindling model, rats p.o.; type: in vivo; conditions: po; rat p.o.
# Excerpt: as §2
# [5] = subcutaneous bicuculline model (s.c. Bic), mice; type: in vivo
# Excerpt: as §2
# [6] = neurotoxicity in rats (positional sense test and gait and stance test); type: in vivo; conditions: rat p.o.
# Procedure: (§4) Neurotoxicity of the claimed agents was also assessed in mice (i.p. adminstration) by the rotorod ataxia test and also in some cases in rats (p.o. administration) by the positional sense test and gait and stance test.
# [7] = type: in vivo, rat
# Procedure: (§3) The studies test for the level of motivation, association and short and long-term memory. The specific studies were the effect of compound 1 on the performance of rats in the locomotor test and passive and active response tests.
# In the locomotor test, motor activity was recorded 8 to 9 days after the beginning of drug treatment. Locomotion scores were recorded in cages (25×26cm) having a grid of infra-red beams at 4 cm intervals. Two categories of movements were recorded: small movements (those originating in stationary activities such as grooming and scratching), and big movements (those resulting in ambulation and recorded as the simultaneous crossing of more than two beams). Since rats are nocturnal animals, recordings were usually made between 18:00 PM-6:00 AM.
# Activity scores of drugtreated rats, measured in activity cages on days
# 8-9 after initiation of daily oral dosing with the given drug. Figures ar
# number of crossings ± SEM. Number of rats per group are given in […]
# [8] = type: in vivo, rat; remark: listed apart in the source
# Procedure: Tests were performed on day 10 after drug treatment. Latency, in seconds, represents response time to entry into dark compartment. Maximum latency is 300 sec. Longer latencies represent improved performance. Bars represent mean standard error (SEM).
# as §3
# To measure passive avoidance responses, tests were performed on days 10, 12, 14, 20, and 26 after initiation of drug treatment. The apparatus consisted of a lit chamber that can be separated from a dark chamber by a sliding door. In the experiment, a rat is placed in a lit chamber for 30 sec, the door is then opened and the rat moves into the dark chamber with latency that is recorded. Upon entry into the dark chamber, the door is shut and a 0.3 mA footshock is delivered for 3 sec. Retention of the experience is determined after 48 hours by repeating the test and recording the latency. The maximum latency was arbitrarily assigned the value of 300 sec. Longer latencies are taken as a measure of improved memory.
# [9] = type: in vivo, rat; set-up: key to Latency, Session I / Latency, Session II: latency in seconds for avoiding a potential shock
# Procedure: Test was performed on days 16-17 (session 1) and 22-23 (session 2) after initiation of drug treatment. Better performance is indicated by an increase in avoidance score, a decrease in latency time, and an increase in the number of crossings.
# as §3
# The conditioned avoidance response (active avoidance test) of rats was determined in a Hugo-Basile automatic conditioning apparatus, which consists of a shuttle box with two separate floor grids. In this apparatus the rats are conditioned to jump from one side of the box to the other side. The conditioning is a 10 sec stimulus consisting of a light and electric buzzer. […] The session is then repeated with the same rats 7 days later. Experiments were carried out on days 16-17 and 22-23 from the start of drug treatment, and each rat received 60 trials with a 30 sec interval between each trial.
# The following parameters were recorded: a) the number of potential shocks successfully avoided; b) the latency response in seconds for avoiding a potential shock; and c) the total number of crossings made throughout the trials. In this test, a better performance is indicated by an increase in the avoidance of an electric shock, a decrease in the latency time to jump to the other side of the cage, and an increase in the number of times the rats crossed to the other side of the cage.
# Scores in the active avoidance test (conditioned avoidance response) of
# rats treated with compound 1 and related drugs. The tests in the first
# session were performed on days 16-17 from initiation of drug
# administration. Those in session II were performed on days 22-23, that is
# 7 days following session I. Number of rats in a group are given in […]
# [10] = screen for protection against chemically and electrically induced convulsions (at least two models of epilepsy); type: in vivo; conditions: mice i.p. and/or rats p.o.; MES, s.c. Met, s.c. Bic, electrical kindling
# Excerpt: as §1, §2
# [11] = cognitive impairment tests in rats (locomotor, passive and active response tests); type: in vivo, rat; conditions: at minimum dose giving full protection in MES test
# Excerpt: A major neurological side effect observed in patients on treatment with antiepileptic agents is cognitive impairment. […] Results from the models used are taken as indicators of major constituents of human cognition.
# as §3
# in vivo = conditions: mouse, ip
# [12] = neurotoxicity in mice (rotorod ataxia test)
# Procedure: as §4
# [13] = rat p.o.; literature values; cited from earlier work
# [14] = rat p.o.; literature values; N.E. = not effective; cited from earlier work
# [15] = mice i.p., literature values, N.E. = not effective, cited from earlier work
# [16] = literature values; cited from earlier work
# [17] = rat, in vivo, po; cited from earlier work
# [18] = rat p.o.; literature values; cited from earlier work; remark: listed apart in the source
# [19] = mice i.p.; literature values; cited from earlier work
# [20] = background literature; cited from earlier work
# [21] = median lethal dose in mice; conditions: mouse, in vivo, ip
# [22] = rats, daily oral dosing, days 8-9, compound 1 200 mg/kg, Na Valproate 500 mg/kg, ± SEM
# [23] = rats, days 16-17, compound 1 200, carbamazepine 15, Na valproate 500 mg/kg
# [24] = rats, days 22-23, compound 1 200, carbamazepine 15, Na valproate 500 mg/kg
compound,measurement,setting,value
"CCCC(CCC)C(=O)NCC(N)=O [Compound 1, N-(2-n-Propylpentanoyl)glycinamide]",ED100,[1]; po,200 mg/kg
same,ED50,"[1]; po, rat p.o., read-out: ED50, MES model",73 mg/kg
same,"Pi (protective index, TD50/ED50), MES model",[1]; rat p.o.,> 13.7
same,"ED50 in MES model, times lower (more efficacious) than VPA","[1]; rat p.o., vs VPA",seven
same,ED50 in MES model relative to phenytoin,"[1]; rat p.o., vs phenytoin",approximately twice
same,"PI (protective index, TD50/ED50), MES model",[2],2.4
same,ED50,"[2]; Mus musculus, ip, read-out: ED50, MES model",152 mg/kg
same,"PI (protective index, TD50/ED50), s.c. MET model",[3],2.9
same,ED50,"[3]; Mus musculus, ip, read-out: ED50, s.c. MET model",127 mg/kg
same,ED50,[4],162 mg/kg
same,"protection from seizures, s.c. Bic model",[5],"full protection from seizures in mice, at a dose that was approximately that of literature values for the ED50 for VPA"
same,TD50,"[6]; in vivo, po, read-out: TD50 (median neurological toxic dose)",> 1000 mg/kg
same,TD50 (median neurological toxic dose),[6],> 1000 mg/kg
same,"Big mov. (activity score), day activity 14.00-20.00 h",[7]; [22],2402 ± 307 number of crossings
same,"Big mov. (activity score), night activity 20.00-08.00 h",[7]; [22],7217 ± 765 number of crossings
same,"Total mov. (activity score), day activity 14.00-20.00 h",[7]; [22],7749 ± 1188 number of crossings
same,"Total mov. (activity score), night activity 20.00-08.00 h",[7]; [22],22568 ± 2209 number of crossings
same,motor activity in locomotor test,"[7]; rats, vs control",no significant difference in motor activity between the control and compound 1
same,passive avoidance performance (retention),"[8]; rats, day 16, compound 1 200 mg/kg, VPA 500 mg/kg, daily oral",retained their acquired knowledge to avoid the electric shock as well as the control group
same,active avoidance performance,"[9]; rats, compared with VPA group, compound 1 200 mg/kg, VPA 500 mg/kg, daily oral",significantly better performance than the VPA treated group
same,"Avoidance, Session I",[9]; [23],14 ± 7
same,"Crossings, Session I",[9]; [23],38 ± 13
same,"Latency, Session I",[9]; [23],21 ± 3 s
same,"Avoidance, Session II",[9]; [24],12 ± 7
same,"Crossings, Session II",[9]; [24],35 ± 9
same,"Latency, Session II",[9]; [24],22 ± 3 s
same,anticonvulsant activity,[10],showed anticonvulsant activity in rodents in all of the above mentioned tests
same,cognitive impairment compared with VPA,[11],less cognitive impairment than VPA
same,LD50,in vivo,> 4000 mg/kg
same,TD50 compared with VPA,"[12]; mice i.p., vs VPA",significantly higher for compound 1 (less neurotoxic)
same,TD50,"[12]; mouse, in vivo, ip",369 mg/kg
CCCC(CCC)C(=O)O [Na Valproate],"Big mov. (activity score), day activity 14.00-20.00 h","[7]; rat, in vivo",2784 ± 352 number of crossings
same,"Big mov. (activity score), night activity 20.00-08.00 h","[7]; rat, in vivo",5832 ± 854 number of crossings
same,"Total mov. (activity score), day activity 14.00-20.00 h","[7]; rat, in vivo",8963 ± 1554 number of crossings
same,"Total mov. (activity score), night activity 20.00-08.00 h","[7]; rat, in vivo",18876 ± 2039 number of crossings
same,"Avoidance, Session I","[9]; rat, in vivo",2 ± 3
same,"Avoidance, Session II","[9]; rat, in vivo",6 ± 5
same,"Crossings, Session I","[9]; rat, in vivo",13 ± 2
same,"Crossings, Session II","[9]; rat, in vivo",16 ± 9
same,"Latency, Session I","[9]; rat, in vivo",28 ± 0.4
same,"Latency, Session II","[9]; rat, in vivo",27 ± 2
O=C1NC(=O)C(c2ccccc2)(c2ccccc2)N1 [Phenytoin],"ED50, MES model",[13],29.8 mg/kg
same,"ED50, s.c. MET model",[14],N.E.
same,"ED50, s.c. MET model",[15],N.E.
same,efficacy in s.c. Bic model,[16],not effective
same,TD50 (median neurological toxic dose),[17],> 3000 mg/kg
CCCCCNCC(N)=O [milacemide],activity in MES model,[2],neither valproylglycine nor milacemide was active
same,activity in s.c. Met model,[3],neither valproylglycine nor milacemide was active
CCCC(CCC)C(=O)NCC(=O)O [valproylglycine],activity in MES model,[2],neither valproylglycine nor milacemide was active
same,activity in s.c. Met model,[3],neither valproylglycine nor milacemide was active
NC(=O)N1c2ccccc2C=Cc2ccccc21 [Carbamizepine],"Avoidance, Session I",[9]; [23],7 ± 4
same,"Crossings, Session I",[9]; [23],18 ± 10
same,"Latency, Session I",[9]; [23],27 ± 2 s
same,"Avoidance, Session II",[9]; [24],2 ± 2
same,"Crossings, Session II",[9]; [24],11 ± 8
same,"Latency, Session II",[9]; [24],29 ± 1 s
same,"ED50, MES model",[13],8.5 mg/kg
same,"ED50, s.c. MET model",[14],N.E.
same,"ED50, s.c. MET model",[15],N.E.
same,"ED50, electrical kindling model",[18],28.9 mg/kg
"CCCC(CCC)C(=O)O [VPA, 2-propylpentanoic acid]",ED100,[1]; po,500 mg/kg
same,passive avoidance performance (retention),"[8]; rat, in vivo",performed much worse
same,active avoidance performance compared with control group,"[9]; rat, in vivo",worse performance
same,"ED50, MES model",[13],490 mg/kg
same,"ED50, MES model",[19],272 mg/kg
same,"ED50, s.c. MET model",[14],180 mg/kg
same,"ED50, s.c. MET model",[15],146 mg/kg
same,"ED50, s.c. MET model",[15]; listed as Valproic acid,149 mg/kg
same,"ED50, electrical kindling model",[18],117 mg/kg
same,adverse effects,[20],considerable adverse effects including hepatotoxicity and teratogenicity
same,LD50,[21],658 mg/kg
